The values below come from patent publication US8501806B2, “Methods for preventing or reducing colon carcinogenesis” (Nogra Pharma Limited, priority 2008, dated 2013).

One data set has as its system HCT-116 cells. The data set can be described thus: CFSE cell proliferation assay, HCT-116 cells. The data set is classed as cell-based, human. How it is done: All reagents used in Examples 1-3 were from Sigma-Aldrich (Milan, Italy) unless specified. Compounds were dissolved as a 25 mM stock solution in culture medium, and the pH of the solution was adjusted to 7.4, if necessary, with NaOH. The human CRC cell lines, HCT-116 and HT-29 (expressing either wild-type or mutated p53 respectively), were maintained in McCoy's 5A supplemented with 10% fetal bovine serum (FBS), 1% penicillin/streptomycin, and 50 μg/ml gentamycin. The murine CRC cell line, CT26, was maintained in RPMI 1640 medium supplemented with 10% FBS and 1% penicillin/streptomycin.
For cell growth assays, serum-starved HCT-116, HT-29, and CT26 cells were plated in appropriate complete medium at 2×10^5 cells/ml/well in 6-well culture dishes and allowed to adhere overnight. Cells were then labeled with carboxyfluorescein diacetate succinimidyl ester (CFSE) (Invitrogen, Milan Italy) at 37° C. according to the manufacturer's instruction. After 30 minutes, the medium was removed and fresh media containing 0.05% bovine serum albumin (BSA), and increasing doses of 5-ASA or disclosed compounds were added. After 24 hours, cells were collected, washed twice with PBS 1×, and then incubated with 5 μg/ml of PI for 15 minutes, at 4° C. in the dark. CFSE and/or PI-positive cells were determined by flow cytometry (Becton Dickinson, FACSCalibur, Milan, Italy). To determine whether the negative effect of compound 14 (2-methoxy-5-amino-N-hydroxybenzamide) on proliferation was reversible, cells were cultured in the presence or absence of compound 14 (1.5 and 3 mM) for 24 hours (1st culture). Afterwards, cells were either left untreated or extensively washed and cultured with medium in the absence of compound 14 for additional 24 hours (2nd culture). The percentage of proliferating cells was then evaluated by flow cytometry.

For data set [1], the system named is colonic IEL (intra-epithelial lymphocytes). Kind of data set: Proliferation of normal colonic intra-epithelial lymphocytes (anti-CD3/CD28). In kind it is cell-based. The settings on record: FIG. 4A; anti-CD3/CD28, graded doses, 48 hours.
In data set [2] the test system is established CT26-derived tumors. Kind of data set: Growth of established CT26 xenografts. The data set is classed as in vivo, Balb/c mice. The settings on record: FIG. 7D; subcutaneously 8 mg/kg mouse/day for 2 weeks from day 14. The procedure: CT26 cells (1×10^5 cells in 300 μl PBS 1×) were injected subcutaneously into the flank of Balb/c mice, whose fur was shaved and depilated. Five groups of 10 mice each were implanted with CT26. The first group received daily subcutaneously 300 μl PBS (control), the remaining groups received daily subcutaneously compound 14 at a final dose of 1, 4, 8, or 12 mg/kg/mouse dissolved in 300 μl PBS. Both compound 14 and PBS were administered starting on day 3. Further experimentation was performed to assess whether compound 14 had anti-cancer activity when administered systemically. […] Mice were monitored over the time for weight loss. After 2 weeks, mice were sacrificed, tumors were photographed, then excised and their mass calculated according to the following formula: ½×(short diameter)×(long diameter)×(height). Total extracts were prepared from xenografts and analyzed for cyclin D1 protein content by Western blotting using a commercially available antibody (Santa Cruz Biotechnology). […] After 2 weeks, mice with similar tumor size, determined by caliper measurements, were divided into three groups of 8 mice each. […] Mice were monitored over the time for weight loss. After 2 weeks, mice were sacrificed, tumors were photographed, then excised and their mass calculated as described above. […] Mice were monitored over the time and sacrificed at day 28.

In data set [3] the test system is colitis-associated colon cancer. Kind of data set: AOM/DSS colitis-associated colon cancer. In kind it is in vivo, Balb/c mice. To be noted: i.p. 16 mg/kg/mouse every second day for 49 days. How it is done:
Balb/c mice were given a first i.p. injection of AOM (10 mg/kg) on day O, Seven days after the AOM injection, the mice were given 2% DSS in the drinking water for 7 days. One week after the discontinuation of DSS administration, the mice were given a second i.p. injection of AOM (5 mg/kg). Then, 7 days after the second AOM injection, the mice were again given 2% DSS in the drinking water for 7 days. Two weeks later, the mice were randomly divided into two groups receiving i.p. injection of PBS or 16 mg/kg/mouse compound 14 every second day, for 49 days until sacrifice. (To rule out the possibility that compound 14 could interfere with the ongoing mucosal inflammation, treatment was started 2 weeks after the last DSS administration.) Mice were endoscopically screened, and neoplastic lesions were scored as previously described All mice were sacrificed at the end of the study, and colonic samples were used for histological analysis and isolating lamina propria mononuclear cells (LPMC). An aliquot of LPMC was assessed for the expression of CD4, CD8, and CD25 by flow-cytometry using the following antibodies (CD4: cat. 552051, BD Pharmigen, Milan, Italy; CD8: cat. 22150084S and CD25: cat. 22150253, Immunotools, Friesoythe, Germany), while the remaining LPMC were used for extracting RNA and assessing the expression of COX-2, TNFα, and IL-1β by real-time PCR. To this end, the following primers were used: COX-2: FWD: 5′-[…]-3′; REV: 5′-[…]-3′, TNFα: FWD: 5′-[…]-3′; REV: 5′-[…]-3, IL-1β: FWD: 5′-[…]-3′; REV: 5′-[…]-3.
Colonic sections were stained with hematoxylin and eosin (H&E). The degree of inflammation and the presence of neoplastic lesions were evaluated and graded by the same pathologist in a blinded fashion. Immunohistochemistry for PCNA was performed using a PCNA staining kit (ZYMED Laboratories, Carlsbad, Calif., U.S.A.) according to the manufacturer's instructions. […] A polypoidor flat lesion is seen in control and compound 14-treated mice respectively.

With `COc1ccc(N)cc1C(=O)NO` [compound 14, 2-methoxy-5-amino-N-hydroxybenzamide], the “anti-proliferative effect (percentage of growth inhibition)” value in the data set with HCT-116 cells (FIG. 1, CFSE-labeled HCT 116 cells, increasing doses) is given as “pronounced anti-proliferative effect”. In addition, in the data set with HCT-116 cells (FIG. 1, CFSE-labeled HCT 116 cells, increasing doses, 24 hours), the “potency relative to 5-ASA in inhibiting CRC cell proliferation” value is recorded as “about ten times more potent than 5-ASA”. Moreover, the “proliferation of HCT-116 cells” value in the data set with HCT-116 cells (FIG. 2, graded doses) was “dose-dependently inhibited”. The “time dependence of anti-proliferative effect” value with HCT-116 cells (FIG. 3A, increasing doses for 24, 48, and 72 hours) is listed as “time-dependent”. Moreover, the “reversibility of anti-proliferative effect” value with HCT-116 cells (FIG. 3B, 1.5-3 mM for 24 hours, then washed and cultured 24 hours without compound) is recorded as “fully reversible”. Moreover, the “proliferation of normal colonic intra-epithelial lymphocytes” value in data set [1] was “did not affect”. Besides, in data set [2], the “tumor size of established CT26-derived tumors vs PBS” value was “significantly reduced”. The “multiplicity of neoplastic lesions (polypoid and flat)” value in data set [3] (FIG. 8C) is “significantly reduced both types of lesions”. Also, in data set [3], the “PCNA staining in normal colonic mucosa” value was “no significant change” and the “PCNA staining of neoplastic lesions” value is reported as “confirmed the anti-proliferative effect”.
